Laboratory results from patent publication US10071990B2, “Site-specific orthogonal labeling of the carboxy terminus of α-tubulin in live cells” (The Research Foundation for The State University of New York, priority 2013, dated 2018).
Where two headings read alike, the source gives them in different places. Each block holds one compound with its values, some of them ahead of it.

What was measured:
[1] = Absorption and fluorescence spectra and quantum yield; assay type: physicochemical; conditions: in methanol at 25° C.
Description: To test this hypothesis, the absorption and fluorescence spectra of coumarin hydrazine and the salicylaldehyde hydrazone of coumarin hydrazine were measured, which serves as a model compound for the protein-bound hydrazone. Hydrazone formation causes a shift in both the absorption and emission maxima of coumarin hydrazine and a significant increase in quantum yield (Table 2). Thus, as a result of the difference in the spectroscopic window and the quantum yields of coumarin hydrazine and its salicylaldehyde hydrazone, fluorescence from unreacted coumarin hydrazine can be averted.

tubulin tyrosine ligase = target: T1, tubulin tyrosine ligase (Homo sapiens, UniProt Q8NG68); test: Inhibition of [3H]-L-tyrosine incorporation into tubulin by TTL; assay type: biochemical
T1 construct: made in house; host or cells: Escherichia coli BL21
T1 sequence (Q8NG68 1-377): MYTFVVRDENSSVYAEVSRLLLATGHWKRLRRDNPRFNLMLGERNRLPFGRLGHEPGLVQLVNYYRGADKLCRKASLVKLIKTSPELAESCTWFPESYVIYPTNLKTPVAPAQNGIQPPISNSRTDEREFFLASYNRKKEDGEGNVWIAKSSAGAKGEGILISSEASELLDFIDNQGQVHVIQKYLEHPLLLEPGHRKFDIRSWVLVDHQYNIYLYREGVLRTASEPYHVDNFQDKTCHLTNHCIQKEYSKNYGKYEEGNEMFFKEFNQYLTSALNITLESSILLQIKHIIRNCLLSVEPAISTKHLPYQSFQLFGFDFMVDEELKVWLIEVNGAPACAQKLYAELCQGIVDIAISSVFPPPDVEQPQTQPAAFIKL
Description: Tubulin Tyrosine Ligase. An initial supply of TTL was a gift of Prof. Dr. Jürgen Wehland and Dr. Christian Erck (Gesellschaft für Biotechnologische Forschung, Germany) and was stored at −80° C. Human TTL was prepared using expression vector p Receiver 05x (Genecopoeia, Md.), transformed into the Escherichia coli expression strain BL21.
[3H]-Tyr Incorporation Assay. TTL was thawed and diluted to 1 mg mL^−1 immediately before use. Detyrosinated tubulin (10 μM tubulin) in TTL buffer was combined with […] μL^−1 [3H-Tyr], 0.1 μg μL^−1 TTL, and various concentrations of inhibitor. The mixture was allowed to react for 30 min at 37° C. A 35 μL aliquot of the sample was placed onto DEAE chromatography paper (Whatman) and allowed to dry for 30 min. The protein was fixed using 200 μL of 10% acetic acid and allowed to dry for 10 min. Excess [3H-Tyr] was removed by 2 washes with 3.5 mL of 100% ethanol. The paper was allowed to dry for 30 min and then was combined with 10 mL of Scintiverse (BD) scintillation fluid. The amount of [3H]-tyrosine on each filter was determined using a β-counter.

cells = test: SRB assay after 96 h treatment with amino acid; assay type: cell-based; conditions: for IC50: cells treated 96 h, read-out: IC 50 (toxicity)
PC3 cells [2] = test: Effect on cell morphology and microtubule network (immunofluorescence); assay type: cell-based; conditions: 24 hour treatment followed by treatment with a fluorophore
Description: PC3 cells were grown in F12K medium supplemented with unnatural amino acid for 24 h. Cells were washed and then treated with fluorophores for 24 h before fixing with methanol. Cells were then processed for immunofluorescence using tubulin antibody (red) and DAPI (blue).
PC3 cells were grown in F12K medium supplemented with unnatural amino acid for 24 h. Cells were washed and treated with a fluorophore for 24 h before fixing with methanol. Cells were then processed for immunofluorescence using tubulin antibody (red) and DAPI (blue).

PC3 cells [3] = test: SRB cytotoxicity of amino acid and fluorophore on live cells; assay type: cell-based; conditions: 24 hour period
Description: PC3 cells were grown in medium supplemented with unnatural amino acid or vehicle for 24 h. Cells were then treated with fluorophore or vehicle for 24 h, following which an SRB assay was performed to assess the cytotoxicity of the molecules.
FIGS. 12A-12C show graphs of cytotoxicity of amino acid and fluorophore on live cells. The labeling technique is not detrimental to PC3 cell survival. PC3 cells were grown in medium supplemented with unnatural amino acid or vehicle (2% v/v, 10 mM phosphate buffer, pH 7) for 24 h. Cells were then treated with fluorophore or vehicle (1% v/v DMSO) for 24 h. Following which SRB assay was performed to assess the cytotoxicity of the molecules.

[4] = Kinetics of hydrazone formation by absorption difference spectroscopy; conditions: reaction with 3-formyltyrosine, PME buffer pH 6.9, 25° C.
From the text: Removal and replacement of the C-terminal tyrosine of α-tubulin can be assessed by Western blot. […] The presence of a carbonyl in α-tubulin was confirmed reacting the protein with dinitrophenylhydrazine (DNPH) followed L-tyrosine or 3-formyltyrosine as described under Methods and then subjected to SDS-PAGE. Top: Western blot with tyrosinated α-tubulin antibody (Sigma-Aldrich TUB-1A2). Bottom: Coomassie stain. Lane 1: Tubulin. Lane 2: Tubulin treated with CPA. Lane 3: CPA-treated tubulin retyrosinated with tyrosine. Lane 4: CPA-treated tubulin retyrosinated with 3-formyltyrosine. The mass of protein loaded each well was 0.66 μg for the Western blot and 10 μg for the protein stain. Hydrazone Formation: Effect of the Structure of the Nucleophile. Reactions of aldehydes and ketones with hydrazines, hydroxylamines, and amines have been extensively studied (33). The rate vs pH curve is bellshaped; the maximum reaction rate is around the pKa of the hydrazine. […]
Kinetic Measurements. Kinetics of hydrazone formation were measured using absorption difference spectroscopy. […] The change in absorbance for one wavelength was selected from the spectral data, and these values were plotted as a function of time. The data were analyzed as a single pseudo-first-order reaction and were fit to the appropriate equation using SigmaPlot 10.0.

[5] = from reference 34; cited from earlier work
[6] = inhibition of tubulin tyrosine ligase, 10 μM detyrosinated tubulin, 30 min at 37° C.

Compound: Cc1cc(=O)oc2cc(NN=Cc3ccccc3O)ccc12
- Abs max [1]: 380 nm
- Em max [1]: 459 nm
- φ (quantum yield) [1]: 0.131

Compound: CC(=O)c1cc(C[C@H](N)C(=O)O)ccc1O [AcY, 3-acetyltyrosine]
- cytotoxicity compared with 3fY (PC3 cells [3]): less cytotoxic over 24 hour period than 3fY
- IC50 (cells): > 5 mM
- effect on microtubule network and cell morphology (PC3 cells [2]): does not alter the microtubule network or cell morphology

Compound: N[C@@H](Cc1ccc(O)cc1)C(=O)O [Tyrosine]
- Ki (tubulin tyrosine ligase; [6]): 25 µM

Compound: NNC(=O)[C@@H](N)Cc1ccc(O)cc1 [Yzide, tyrosine hydrazide, reference compound]
- toxicity (cells; 5 mM ligand, 96 h): No toxicity observed
- IC50 (cells): > 5 mM
- effect on microtubule network and cell morphology (PC3 cells [2]): does not alter the microtubule network or cell morphology

Compound: NNc1ccccc1 [phenyl hydrazine]
- pKa [5]: 5.3

Compound: Phenyl hydrazide
- pKa [5]: 3.1

Now from value to compound, other results behind:

- Ki (tubulin tyrosine ligase; [6]): 200 µM
Compound: Nc1cc(C[C@H](N)C(=O)O)ccc1O [3-Aminotyrosine]

- Ki (tubulin tyrosine ligase): 200 µM
Compound: [N-]=[N+]=Nc1cc(C[C@H](N)C(=O)O)ccc1O [3-Azidotyrosine]

- Ki (tubulin tyrosine ligase): 300 µM
Compound: N[C@@H](Cc1ccc(O)c(C=O)c1)C(=O)O [3-Formyltyrosine]
- IC50 (cells): > 0.025 mM
- effect on microtubule network and cell morphology (PC3 cells [2]): does not alter the microtubule network or cell morphology

- Ki (tubulin tyrosine ligase): > 4000 µM
Compound: Nc1ccc(C[C@H](N)C(=O)O)cc1 [4-Aminophenylalanine]

- Abs max [1]: 360 nm
- Em max [1]: 432 nm
- φ (quantum yield) [1]: 0.046
Compound: Cc1cc(=O)oc2cc(NN)ccc12 [coumarin hydrazine, 7-hydrazino-4-methyl coumarin]
- time to complete hydrazone formation [4]: ≤ 120 min
- second-order rate constant of hydrazone formation ([4]; no catalyst): 53 M⁻¹ min⁻¹
